Assay results as given in patent publication US20250017940A1, “SELECTIVE PEPTIDOMIMETIC MODULATORS OF CAV2.2 (N-TYPE) VOLTAGE-GATED CALCIUM CHANNELS AND USES THEREOF” (New York University, priority 2023, published 2025).

System: Cav3 (T-type) calcium channels
Test: Whole-cell patch-clamp, isolated T-type Ca2+ currents in DRG neurons
Format: cell-based, rat
Procedure: Recordings were obtained from acutely dissociated DRG neurons as described earlier (Bellampalli et al., 2019). Patch-clamp recordings were performed at room temperature (22-24° C.). Currents were recorded using an EPC 10 Amplifier-HEKA (HEKA Elektronik, Ludwigshafen, Germany) linked to a computer with Patchmaster software. DRG neurons were incubated overnight (˜16-24 hours) with 20 μM of CBD3063.
For total calcium current (ICa^2+) recordings, the external solution consisted of the following (in mM): 110 N-methyl-D-glucamine, 10 BaCl2, 30 TEA-Cl, 10 HEPES, 10 glucose, and 0.001 TTX (pH 7.29 adjusted with TEA-OH, and mOsm/L=310). Patch pipettes were filled with an internal solution containing (in mM): 150 CsCl2, 10 HEPES, 5 Mg-ATP, and 5 BAPTA, (pH 7.2 adjusted with CsOH, and mOsm/L-305). Peak Ca^2+ current was acquired by applying 200-millisecond voltage steps from −70 to +60 mV in 10-mV increments from a holding potential of −90 mV to obtain the current-voltage (I-V) relation. To measure the different subtypes of Ca^2+ channels, DRGs were treated with a Cav inhibitor cocktail omitting the inhibitor specific to the subtype being tested (e.g., to measure Cav2.2 currents, ω-conotoxin GVIA is omitted): Nifedipine (10 μM, L-type), ω-Conotoxin-GVIA (500 nM, […]) (Feng, et al., 2001), SNX482 (200 nM, R-type) (Newcomb et al., 1998), ω-agatoxin (200 nM, P/Q-type) (Mintz et al., 1992), TTA-P2 (1 μM, T-type) (Choe et al., 2011).
Normalization of currents to each cell's capacitance (pF) was performed to allow for collection of current density data. For I-V curves, functions were fitted to data using a non-linear least squares analysis. I-V curves were fitted using double Boltzmann functions:
where x is the pre-pulse potential, V1/2 is the mid-point potential, and k is the corresponding slope factor for single Boltzmann functions. Double Boltzmann fits were used to describe the shape of the curve, not to imply the existence of separate channel populations. Numbers 1 and 2 simply indicate first and second mid-points; a along with g are fitting parameters.
Activation curves were obtained from the I-V curves by dividing the peak current at each depolarizing step by the driving force according to the equation: G=I/(Vmem-Erev), where I is the peak current, Vmem is the membrane potential and Erev is the reversal potential. The conductance (G) was normalized against the maximum conductance (Gmax). For total and the different subtypes of Ca^2+ currents, steady-state inactivation (SSI) curves were obtained by applying an H-infinity protocol that consisted of 1.5-seconds conditioning pre-pulses from −100 to +30 mV in 10-mV increments followed by a 20-millisecond test pulse to +10 mV. For Na^+ currents, SSI curves were obtained by applying an H-infinity protocol that consisted of 1-second conditioning pre-pulses from −120 to +10 mV in 10-mV increments followed by a 200-millisecond test pulse to +10 mV. Inactivation curves were obtained by dividing the peak current recorded at the test pulse by the maximum current (Imax). Activation and SSI curves were fitted with the Boltzmann equation.

[1] = 20 μM overnight, mean ± SEM (n cells)

CC(=O)N[C@@H]1CCCN(C(=O)NCCCNc2ccccn2)C1 [CBD3063, (3R)-3-acetamido-N-[3-(pyridin-2-ylamino)propyl]piperidine-1-carboxamide]
effect on Ca2+ influx through Cav3 (T-type) channels (current density-voltage curve, peak current density) (20 μM overnight vs 0.1% DMSO): does not alter | T-type Ca2+ currents, activation V1/2 [1]: −10.982 ± 1.992 (10) mV | T-type Ca2+ currents, activation k (slope factor) [1]: 9.924 ± 1.628 (10) | T-type Ca2+ currents, inactivation V1/2 [1]: −35.122 ± 2.752 (10) mV | T-type Ca2+ currents, inactivation k (slope factor) [1]: −12.929 ± 2.490 (10)
